Source: patent US20230091047A1 (priority 2019, published 2023)

Tests used:
in vitro = format: cell-based; conditions: human, HepG2 or HepG2.117 cells, 3-days incubation (unmarked values), ATPlite; mean value
Summary of the method: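 Luminescent ATP quantitation served as the viability endpoint following a 3- or 4-day incubation with test compounds.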

[1] = test system: HBV (HepG2.117 cell line, inducibly HBV producing); experiment: Anti-HBV activity: intracellular HBV DNA by real-time PCR in HepG2.117 cells after 3 days of treatment; format: cell-based, hepatitis B virus; conditions: Hepatitis B virus, HepG2.117, 72 h, HepG2.117 cells, 3 days of treatment, intracellular HBV DNA by real-time PCR; mean value; read-out: EC50 (μM, mean value)
Summary of the method: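 First, HBV replication is induced in HepG2.117 cells by doxycycline absence. Next, serially diluted compound is added for 3 days. Finally, intracellular HBV DNA is quantified by HBV-specific real-time PCR.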

SMILES | CC50 at 3 days (in vitro) [µM] | EC50 [1] [µM]
CCC1Cc2c(nc(NC(C)C)n(-c3ccc(S(C)(=O)=O)cc3)c2=O)CN1C(=O)c1ccc(Cl)c(Cl)c1 (stereo not drawn) [Compound C158, 7-(3,4-dichlorobenzoyl)-6-ethyl-3-[4-(methanesulfonyl)phenyl]-2-[(propan-2-yl)amino]-5,6,7,8-tetrahydropyrido[3,4-d]pyrimidin-4(3H)-one] | > 50 | 1.14
COc1ccc(CNc2nc3c(c(=O)n2-c2ccc(N4CCOCC4C(=O)O)cc2)CCN(C(=O)c2ccc(Cl)c(Cl)c2)C3)cc1 (stereo not drawn) [Compound C159, 4-{4-[7-(3,4-dichlorobenzoyl)-2-{[(4-methoxyphenyl)methyl]amino}-4-oxo-5,6,7,8-tetrahydropyrido[3,4-d]pyrimidin-3(4H)-yl]phenyl}morpholine-3-carboxylic acid] | > 50 | 23.1
COc1ccc(CNc2nc3c(c(=O)n2-c2ccc(-c4ncco4)cc2)CCN(C(=O)c2ccc(Cl)c(Cl)c2)C3)cc1 [Compound C160, 7-(3,4-dichlorobenzoyl)-2-{[(4-methoxyphenyl)methyl]amino}-3-[4-(1,3-oxazol-2-yl)phenyl]-5,6,7,8-tetrahydropyrido[3,4-d]pyrimidin-4(3H)-one] | > 50 | 0.54
COc1ccc(CNc2nc3c(c(=O)n2-c2ccc(N4CCC(NC(=O)OC(C)(C)C)C4)cc2)CCN(C(=O)c2ccc(Cl)c(Cl)c2)C3)cc1 (stereo not drawn) [Compound C161, tert-butyl (1-{4-[7-(3,4-dichlorobenzoyl)-2-{[(4-methoxyphenyl)methyl]amino}-4-oxo-5,6,7,8-tetrahydropyrido[3,4-d]pyrimidin-3(4H)-yl]phenyl}pyrrolidin-3-yl)carbamate] | > 50 | 2.4
CC(C)Nc1nc2c(c(=O)n1-c1ccc(-c3ncco3)cc1)CCN(C(=O)c1ccc(Cl)c(Cl)c1)C2 [Compound C162, 7-(3,4-dichlorobenzoyl)-3-[4-(1,3-oxazol-2-yl)phenyl]-2-[(propan-2-yl)amino]-5,6,7,8-tetrahydropyrido[3,4-d]pyrimidin-4(3H)-one] | > 50 | 0.47
CC(C)Nc1nc2c(c(=O)n1-c1ccc(S(C)(=O)=O)cc1)CCN(C(=O)c1nc3ccc(Cl)cc3[nH]1)C2 [Compound C163, 7-(6-chloro-1H-benzimidazole-2-carbonyl)-3-[4-(methanesulfonyl)phenyl]-2-[(propan-2-yl)amino]-5,6,7,8-tetrahydropyrido[3,4-d]pyrimidin-4(3H)-one] | > 50 | 4.45
CC(C)Nc1nc2c(c(=O)n1-c1ccc(S(C)(=O)=O)cc1)CCN(C(=O)c1ccc3sccc3c1)C2 [Compound C164, 7-(1-benzothiophene-5-carbonyl)-3-[4-(methanesulfonyl)phenyl]-2-[(propan-2-yl)amino]-5,6,7,8-tetrahydropyrido[3,4-d]pyrimidin-4(3H)-one] | > 50 | 0.24
CC(C)Nc1nc2c(c(=O)n1-c1ccc(S(C)(=O)=O)cc1)CCN(C(=O)c1cc3cc(F)c(F)cc3[nH]1)C2 [Compound C165, 7-(5,6-difluoro-1H-indole-2-carbonyl)-3-[4-(methanesulfonyl)phenyl]-2-[(propan-2-yl)amino]-5,6,7,8-tetrahydropyrido[3,4-d]pyrimidin-4(3H)-one] | > 50 | 0.05
CC(C)Nc1nc2c(c(=O)n1-c1ccc(-n3cccn3)cc1)C[C@@H](C)N(C(=O)c1ccc(Cl)c(Cl)c1)C2 [Compound C166, (6R)-7-(3,4-dichlorobenzoyl)-6-methyl-2-[(propan-2-yl)amino]-3-[4-(1H-pyrazol-1-yl)phenyl]-5,6,7,8-tetrahydropyrido[3,4-d]pyrimidin-4(3H)-one] | > 50 | 0.11
CC(C)Nc1nc2c(c(=O)n1-c1ccc(C(=O)NC3CC3)cc1)C[C@@H](C)N(C(=O)c1ccc(Cl)c(Cl)c1)C2 [Compound C167, N-cyclopropyl-4-[(6R)-7-(3,4-dichlorobenzoyl)-6-methyl-4-oxo-2-[(propan-2-yl)amino]-5,6,7,8-tetrahydropyrido[3,4-d]pyrimidin-3(4H)-yl]benzamide] | > 50 | 0.06
CC(C)Nc1nc2c(c(=O)n1-c1ccc(C(=O)N3CCOCC3)cc1)C[C@@H](C)N(C(=O)c1ccc(Cl)c(Cl)c1)C2 [Compound C168, (6R)-7-(3,4-dichlorobenzoyl)-6-methyl-3-[4-(morpholine-4-carbonyl)phenyl]-2-[(propan-2-yl)amino]-5,6,7,8-tetrahydropyrido[3,4-d]pyrimidin-4(3H)-one] | > 50 | 0.24
CC(C)Nc1nc2c(c(=O)n1-c1ccc(C(=O)N3CCN(C)CC3)cc1)C[C@@H](C)N(C(=O)c1ccc(Cl)c(Cl)c1)C2 [Compound C169, (6R)-7-(3,4-dichlorobenzoyl)-6-methyl-3-[4-(4-methylpiperazine-1-carbonyl)phenyl]-2-[(propan-2-yl)amino]-5,6,7,8-tetrahydropyrido[3,4-d]pyrimidin-4(3H)-one] | 30.7 | 0.15
CC(C)Nc1nc2c(c(=O)n1-c1ccc(-c3cscn3)cc1)CCN(C(=O)c1ccc(Cl)c(Cl)c1)C2 [Compound C170, 7-(3,4-dichlorobenzoyl)-2-[(propan-2-yl)amino]-3-[4-(1,3-thiazol-4-yl)phenyl]-5,6,7,8-tetrahydropyrido[3,4-d]pyrimidin-4(3H)-one] | > 50 | 0.53
CC(C)Nc1nc2c(c(=O)n1-c1ccc(-c3ncc(F)cc3F)cc1)CCN(C(=O)c1ccc(Cl)c(Cl)c1)C2 [Compound C171, 7-(3,4-dichlorobenzoyl)-3-[4-(3,5-difluoropyridin-2-yl)phenyl]-2-[(propan-2-yl)amino]-5,6,7,8-tetrahydropyrido[3,4-d]pyrimidin-4(3H)-one] | 4.6 | 3.95
COc1cccnc1-c1ccc(-n2c(NC(C)C)nc3c(c2=O)CCN(C(=O)c2ccc(Cl)c(Cl)c2)C3)cc1 [Compound C172, 7-(3,4-dichlorobenzoyl)-3-[4-(3-methoxypyridin-2-yl)phenyl]-2-[(propan-2-yl)amino]-5,6,7,8-tetrahydropyrido[3,4-d]pyrimidin-4(3H)-one] | 5.3 | 1.66
CC(C)Nc1nc2c(c(=O)n1-c1ccc(-c3cccc(N4CCOCC4)n3)cc1)CCN(C(=O)c1ccc(Cl)c(Cl)c1)C2 [Compound C173, 7-(3,4-dichlorobenzoyl)-3-{4-[6-(morpholin-4-yl)pyridin-2-yl]phenyl}-2-[(propan-2-yl)amino]-5,6,7,8-tetrahydropyrido[3,4-d]pyrimidin-4(3H)-one] | 7.8 | 0.88
CC(C)Nc1nc2c(c(=O)n1-c1ccc(-c3nccn3C)cc1)CCN(C(=O)c1ccc(Cl)c(Cl)c1)C2 [Compound C174, 7-(3,4-dichlorobenzoyl)-3-[4-(1-methyl-1H-imidazol-2-yl)phenyl]-2-[(propan-2-yl)amino]-5,6,7,8-tetrahydropyrido[3,4-d]pyrimidin-4(3H)-one] | 6.8 | 0.42
CC(C)Nc1nc2c(c(=O)n1-c1ccc(-c3ccco3)cc1)CCN(C(=O)c1ccc(Cl)c(Cl)c1)C2 [Compound C175, 7-(3,4-dichlorobenzoyl)-3-[4-(furan-2-yl)phenyl]-2-[(propan-2-yl)amino]-5,6,7,8-tetrahydropyrido[3,4-d]pyrimidin-4(3H)-one] | 17 | 1.25
CC(C)Nc1nc2c(c(=O)n1-c1ccc(-c3cnccn3)cc1)CCN(C(=O)c1ccc(Cl)c(Cl)c1)C2 [Compound C176, 7-(3,4-dichlorobenzoyl)-2-[(propan-2-yl)amino]-3-[4-(pyrazin-2-yl)phenyl]-5,6,7,8-tetrahydropyrido[3,4-d]pyrimidin-4(3H)-one] | 8.7 | 0.57
CC(C)Nc1nc2c(c(=O)n1-c1ccc(-c3ccnnc3)cc1)CCN(C(=O)c1ccc(Cl)c(Cl)c1)C2 [Compound C177, 7-(3,4-dichlorobenzoyl)-2-[(propan-2-yl)amino]-3-[4-(pyridazin-4-yl)phenyl]-5,6,7,8-tetrahydropyrido[3,4-d]pyrimidin-4(3H)-one] | 18.2 | 0.26
CC(C)NC(=O)c1ccc(-n2c(NC(C)C)nc3c(c2=O)C[C@@H](C)N(C(=O)c2ccc(Cl)c(Cl)c2)C3)cc1 [Compound C178, 4-[(6R)-7-(3,4-dichlorobenzoyl)-6-methyl-4-oxo-2-[(propan-2-yl)amino]-5,6,7,8-tetrahydropyrido[3,4-d]pyrimidin-3(4H)-yl]-N-(propan-2-yl)benzamide] | > 50 | 0.04
COC(=O)C1COCCN1c1ccc(-n2c(NC(C)C)nc3c(c2=O)CCN(C(=O)c2ccc(Cl)c(Cl)c2)C3)cc1 (stereo not drawn) [Compound C179, methyl 4-{4-[7-(3,4-dichlorobenzoyl)-4-oxo-2-[(propan-2-yl)amino]-5,6,7,8-tetrahydropyrido[3,4-d]pyrimidin-3(4H)-yl]phenyl}morpholine-3-carboxylate] | 19.3 | 0.72
CNC1CCN(c2ccc(-n3c(NC(C)C)nc4c(c3=O)CCN(C(=O)c3ccc(Cl)c(Cl)c3)C4)cc2)C1 (stereo not drawn) [Compound C180, 7-(3,4-dichlorobenzoyl)-3-{4-[3-(methylamino)pyrrolidin-1-yl]phenyl}-2-[(propan-2-yl)amino]-5,6,7,8-tetrahydropyrido[3,4-d]pyrimidin-4(3H)-one] | 5.6 | 0.72
CC(C)Nc1nc2c(c(=O)n1-c1ccc(S(C)(=O)=O)cc1)CCN(C(=O)c1cc(Cl)c(Cl)s1)C2 [Compound C181, 7-(4,5-dichlorothiophene-2-carbonyl)-3-[4-(methanesulfonyl)phenyl]-2-[(propan-2-yl)amino]-5,6,7,8-tetrahydropyrido[3,4-d]pyrimidin-4(3H)-one] | > 50 | 2.56
